The test has as its target T1, human MPO embedded in Matrigel (Homo sapiens, UniProt P05164).
T1 construct: purchased BioDesign, Inc
T1 sequence (P05164 49-745): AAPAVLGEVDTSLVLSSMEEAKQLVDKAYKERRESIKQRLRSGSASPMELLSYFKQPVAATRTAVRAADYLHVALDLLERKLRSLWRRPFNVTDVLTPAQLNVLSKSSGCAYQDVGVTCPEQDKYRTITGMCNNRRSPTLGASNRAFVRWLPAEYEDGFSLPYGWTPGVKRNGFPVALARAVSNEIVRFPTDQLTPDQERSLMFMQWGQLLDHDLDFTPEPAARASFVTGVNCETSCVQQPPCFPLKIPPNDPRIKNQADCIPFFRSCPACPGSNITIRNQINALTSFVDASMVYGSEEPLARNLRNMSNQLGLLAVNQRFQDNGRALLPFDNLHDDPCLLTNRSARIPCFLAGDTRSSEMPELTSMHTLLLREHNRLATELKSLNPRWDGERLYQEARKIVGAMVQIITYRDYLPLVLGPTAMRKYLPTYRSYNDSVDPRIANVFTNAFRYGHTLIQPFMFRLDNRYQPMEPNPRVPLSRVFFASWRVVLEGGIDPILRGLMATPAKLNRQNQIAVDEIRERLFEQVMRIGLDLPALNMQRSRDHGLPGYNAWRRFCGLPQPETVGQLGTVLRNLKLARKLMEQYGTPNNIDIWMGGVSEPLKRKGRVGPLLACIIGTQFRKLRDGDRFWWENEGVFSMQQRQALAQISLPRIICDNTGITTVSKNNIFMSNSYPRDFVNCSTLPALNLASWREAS
As to the kind of experiment: MPO/Matrigel implant mouse model, T1-weighted MR imaging. The class given is in vivo. To be noted: for enhancement of MPO implant compared with control implant: right MPO/Matrigel vs left control; for enhancement of MPO implant compared with control implant / relative CNR before wash-out/decrease of the control side: 1.5 T; for maximum relative CNR ratio (CNR(right)/CNR(left)): MPO/Matrigel right vs control left. As to the method:
To evaluate the monomeric substrates in vivo, we devised a mouse model that harbored 400 μL of Matrigel basement membrane matrix gel mixed 1:1 by volume with a solution containing 15 U of human MPO and glucose oxidase (as a source of hydrogen peroxide) that was injected into the right flank of the mouse. The left flank was injected with the enzyme-free Matrigel mixture. We subsequently performed T1-weighted MR imaging after the intravenous injection of Gd-DTPA-diSer substrate at the dose of […].
The MR imaging experiments were performed on a 1.5 T GE Excite scanner and a 4.7 T Bruker Pharmascan scanner. For all MR imaging experiments, precontrast T2-(TR=2000, TE=100, ETL=8, NEX=4, fast spin echo sequence) and T1-weighted images (TR=500, TE=11, NEX=4, spin echo sequence) with fat saturation were initially performed to locate the gels or area of inflammation. The substrates (0.3 mmol/kg) were subsequently injected via the tail vein of the mouse. The mouse was immediately imaged after the injection of the contrast agent using multiple T1-weighted sequences with fat saturation for at least 3 hours.
Ten-week old C57BL6 male mice were obtained from Jackson Laboratories. A total of 22 mice were used for the study. • 1. MPO/Matrigel imaging experiments: Matrigel™ (Beckton-Dickinson), a […] basement membrane matrix gel was used to immobilize human MPO and glucose oxidase (to supply H2O2 required for detecting MPO oxidative activity, Calbiochem). This was chosen to reflect deposits of human MPO in inflamed tissue in a mouse model. 400 μL of a mixture of Matrigel™ and MEM (Cambrex) was injected slowly into the thighs of each mouse one hour prior to imaging. The right thigh mixture also contained 15 U of MPO and 4 U of glucose oxidase (Calbiochem), while the left thigh mixture contained no enzyme and thus serves as an internal control. A total of 15 mice were used (3 mice each for 5-HT-DOTA(Gd), bis-5-HT-DTPA(Gd), bis-5-HT-DTPA-^111In, bis-tyramide-DTPA(Gd), and DTPA(Gd)). • 2. LPS/Matrigel experiments (n=3): This model was developed to induce endogeneous mouse MPO secretion and activation. 200 μL total volume Matrigel containing 10% heparin was injected slowly into the thighs of the mice 4 days prior to imaging. The right-sided mixture also contained E. coli lipopolysaccharide (LPS) at 10 μg/mL. One mouse was sacrificed for immunohistochemistry. • 3. Myositis experiments (n=4): LPS at 100 μg/mL in PBS was injected into each mouse intramuscularly in the right flank to produce myositis. The mice are imaged 24 hours after injection.
For normalized signal intensity measured on T1-weighted images, mean±standard deviation (SD) values were calculated in regions of interest (ROI). Contrast-to-noise (CNR) ratios were computed for each ROI according to the formula

“And” between values parts separate entries of the source, which are not always exact repeats. Equal values may be shown once. “Also recorded” adds a separate entry of the source.

For the compound `O=C([O-])CN(CCN(CC(=O)[O-])CC(=O)NCCc1c[nH]c2ccc(O)cc12)CCN(CC(=O)[O-])CC(=O)NCCc1c[nH]c2ccc(O)cc12.[Gd+3]` [2Gd^3+], the “relative CNR increase before significant wash-out of the control side” value (mice, 4.7 T) worked out at 1.8 fold. In addition, the “maximum relative CNR increase” value by setting is: (mice, at 240 minutes (washout from control implant)) 2.5 times; (mice, in the first 143 minutes) 1.9 times. The “enhancement of MPO implant compared with control implant” value (mice) was “significantly increased enhancement”. The “relative CNR before wash-out/decrease of the control side” value (mouse) was 1.7-1.8 and the “relative CNR before wash-out/decrease of the control side” value (mouse, listed as bis-5-HT-DTPA(Gd)) came out at 1.9. Besides, for the setting “mouse”, the “maximum relative CNR ratio (CNR(right)/CNR(left))” value was 1.72 and 2.5. Also, the “relative CNR ratio” value (mouse, at 185 minutes) stood at 2.0. The “increase in the contrast-to-noise ratio, right (MPO-containing) vs left (control) flank” value (mouse, i.v. 0.3 mM/Kg, over 3 hours post injection) is given as 1.7-2.0 fold.
In the case of `CC(C(=O)NCC(=O)NCCc1c[nH]c2ccc(O)cc12)N1CCN(CC(=O)[O-])CCN(CC(=O)[O-])CCN(CC(=O)[O-])CC1.[Gd+3]` (stereo not shown) [5-HT-DOTA(Gd), Glycylmethyl DOTA(Gd) 5-Hydroxytryptamide], the “enhancement of MPO implant compared with control implant” value (mice) is “significantly increased enhancement”. For the same compound, the “maximum relative CNR ratio (CNR(right)/CNR(left))” value was 1.7 (mouse) and 1.72 (mouse, listed as serotonin-DOTA-Gd^3+ complex).
In the case of `O=C([O-])CN(CCN(CC(=O)[O-])CC(=O)NCCc1ccc(O)cc1)CCN(CC(=O)[O-])CC(=O)NCCc1ccc(O)cc1.[Gd+3]` [1Gd^3+], the “enhancement of MPO implant compared with control implant” value (mice, listed as bis-tyramide-DTPA(Gd)) was “did not result in significantly increased enhancement; also recorded: did not demonstrate significantly increased enhancement”.

The record behind these values is patent US8153784B2, “Imaging of enzyme activity” (The General Hospital Corporation, priority 2004, dated 2012).
